Results from patent US9018000B2, “Voltage gated calcium channel β-subunit anchoring regulator protein and uses thereof” (Agency for Science, Technology and Research, priority 2007, dated 2015).

What was measured:
[1] = cited from earlier work
[2] = system: β-subunits; test: co-immunoprecipitation / co-precipitation of BARP with β-subunits; format: binding
Protocol: To verify that BARP binds to the β-subunits in mammalian cells, co-immunoprecipitation experiments were carried out in COS-1 cells. […] To confirm this association in vivo, we determined the subcellular localization of the β-subunits in the presence of BARP in transfected PC12 and COS-1 cells.
To examine that domain I is indeed a AID-like region, we first mutated the known amino acids in the β-subunit hydrophobic groove responsible for AID interaction, and tested these mutants for association with either AID or BARP domain I by co-precipitation studies. In comparison with the AID domain that only required M196 as a crucial interacting site, almost all amino acid substitutions in the hydrophobic groove of β-subunits interfered with BARP domain I interaction (FIG. 2Cb).
Next, we determined if additional binding sites in BARP are present for β-subunit association. With the use of truncated form of the protein, in which the domain I was abolished, and co-precipitation experiments, we identified a second domain (Dom. II) downstream to the first one (FIG. 2Da).
To further confirm that both domains associate to the β-subunit in the context of full-length BARP, domain I and II were mutated to abolish their respective interaction. […]

[3] = biological target: T1, β3/AID complex (Rattus norvegicus, UniProt P54287); test: dissociation of β3-subunits from GST-AID by competitive peptides; format: binding; settings: peptide 30, 60, 300, 600 nM, four hours, Western blot of supernatant
T1 construct: expressed in transfected cells; host or cells: COS-1 (β3 lysate)
Source text: A, Cell surface expression of HA-epitope tagged Cav1.2 and N-Myc BARP in the presence or absence of Cavβ-subunits. Intact cells expressing Cav1.2, BARP and Cavβ-subunits were immunostained with HA and Myc antibodies. Cav 1.2 AID (X) is a mutant deficient in the β-interacting domain. BARP (db) is a mutant deficient in domain I and II, BARP (LW), or BARP (LFFL), mutants are deficient in domain I and II, respectively. Non-permeabilized TsA201 cells co-expressing wt or mutated HA-Cav1.2, wt or mutated Myc-BARP and the Cavβ-subunits were immunostained with antibodies to HA (green) and Myc (red). Cav 1.2 AID (X) and BARP (db) are mutants defective in Cavβ-subunit binding. […] In vivo expressed Cavβ3-subunits were pulled-down using a GST-AID fusion protein and the complex then incubated with increasing amounts of AID or BARP Domain I peptide. The Cavβ3-subunit displaced from the GST-AID was monitored by Western blot. […] Effects of wt or mutated BARP on the I-V relationship of Ca^2+-channels are shown. […]
To verify if the AID-like domain of BARP dissociates β-subunits from the AID of α1-subunits, COS-1 cells lysate expressing β3 subunits was incubated with GST-AID fusion protein to form a β3/AID complex and subsequently, the dissociation of β3 subunits was monitored after addition of an increasing amount of competitive AID or AID-like BARP peptide (FIG. 4D).

T1 sequence (P54287 whole entry, one chain of several): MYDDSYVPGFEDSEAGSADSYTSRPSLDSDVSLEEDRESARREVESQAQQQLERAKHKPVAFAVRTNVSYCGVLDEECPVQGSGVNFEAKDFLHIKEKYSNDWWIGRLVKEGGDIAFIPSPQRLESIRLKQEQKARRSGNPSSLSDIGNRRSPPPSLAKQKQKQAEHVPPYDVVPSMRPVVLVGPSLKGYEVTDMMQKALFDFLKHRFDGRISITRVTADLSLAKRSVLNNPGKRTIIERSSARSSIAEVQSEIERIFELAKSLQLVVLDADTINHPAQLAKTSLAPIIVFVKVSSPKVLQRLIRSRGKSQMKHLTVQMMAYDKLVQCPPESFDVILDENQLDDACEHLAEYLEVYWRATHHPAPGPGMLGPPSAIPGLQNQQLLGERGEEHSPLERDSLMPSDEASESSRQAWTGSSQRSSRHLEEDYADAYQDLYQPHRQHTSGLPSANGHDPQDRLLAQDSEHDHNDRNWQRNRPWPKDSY

Compound | association with β-subunit isoforms [2] | other results
COC(=O)C1=C(C)NC(C)=C([N+](=O)[O-])C1c1ccccc1C(F)(F)F (stereo not shown) [BayK 8644] | – | side effects in vivo [1]: severe side effects such as dystonic neurobehavioural syndrome, hypertension and arrhythmia
Isolated BARP domain I: isolated AID-like β-interacting domain I of BARP, expressed as GST fusion | able to associate with all known) β-subunit isoforms | –
SYRDLWSLRASLELHAATASD [BARP Domain I peptide] | – | dissociation of β3-subunit from GST-AID [3]: displaces the Cavβ3-subunit from the AID
isolated domain II: isolated second β-interacting domain of BARP (SEQ ID NO:8) (PRAWPRRPRRDYSIDEKTDALFHEFLRHDPHFDDAPRHR) | interacted with β2, β3 and β4, but not with β1 isoforms | –
